# Measured values published in a melting point compilation (Tetko et al.; mined from patent text by program, amines drawn as free bases though some values may be those of a salt).
row,SMILES,melting point [°C]
1,CCn1cc(C(=O)O)c(=O)c2cc(F)c(-c3ccncc3)nc21,286 to 288
2,Nc1ccccc1OCc1ccc2ccccc2n1,62 to 64
3,O=c1[nH][nH]c(=O)c2c(O)c3ccc(C(F)(F)F)cc3nc12,170 to 172
4,NC(=O)c1sc2nc(N3CCC(NCC(O)c4cccnc4)CC3)cc(C(F)(F)F)c2c1N (stereo not drawn),179 to 181
5,Cc1ccc(N(C)S(=O)(=O)c2cccs2)c2[nH]c(C3=NCC(CCO)S3)cc12 (stereo not drawn),168 to 169
6,CN1CCNC1=Nc1ccccc1N1CCOCC1,156
7,Cc1oc(-c2cccs2)nc1COc1ccc(CON=C(CCCCC(=O)O)c2ccccc2)cc1,101 to 102
8,CN(C)S(=O)(=O)c1ccc2c(c1)CNc1ccccc1O2,99 to 102
9,CCOC(=O)c1nn(-c2ccc(Cl)cc2)c2c1CCCC2,139 to 140
10,CC(O)c1nnc2n1-c1sc(Cl)cc1C(c1ccccc1Cl)=NC2 (stereo not drawn),118 to 120
11,Cc1n[nH]c2cc(-c3nn(Cc4oc5ccc(F)cc5c(=O)c4-c4ccccc4)c4ncnc(N)c34)ccc12,277 to 279
12,Nc1ccc(C(=O)c2cccc3c2NCC3)cc1,133 to 135
13,O=C(Cc1ccc(Cl)c(Cl)c1)N1CCN(Cc2ccccc2)CC1CO (stereo not drawn),148 to 150
14,COc1ccc(-c2cc(F)cc3c2NC(CN)CO3)cc1 (stereo not drawn),72
15,CC(C)CCc1ccc(C#N)c(=O)[nH]1,110 to 112
16,O=C(O)c1ccc(-c2ccc(I)c(O)c2)cc1,174
17,CCCCc1ccc(COC(=O)NC2CN3CCC2CC3)cc1 (stereo not drawn),174 to 175
18,N#CCOc1ccc2cc(-c3cnc(Cc4ccccc4)o3)ccc2c1,184 to 187
19,CN1OCCN(c2ccc([N+](=O)[O-])c(C(F)(F)F)c2)C1=O,104 to 105
20,CN1C(=O)C(NC(=O)CCC2CCCCC2)N=C(c2ccccc2)c2ccsc21 (stereo not drawn),189 to 190
21,CN1C(=O)CC[C@]2(C)c3ccc(Sc4nc5c(Br)cccc5s4)cc3CC[C@@H]12,206 to 210
22,O=C(Oc1ccc2c(OC(=O)c3ccc(O)c(Cl)c3)c3ccccc3cc2c1OC(=O)c1ccc(O)c(Cl)c1)c1ccc(O)c(Cl)c1,238
23,Cc1cccc(C)c1C#CCOCCn1cnc2c(N)nc3ccccc3c21,200 to 201

row,SMILES,melting point [°C]
1,Cc1ccc2c(c1)C1CN(Cc3ccccc3)CCC1N2 (stereo not drawn),179 to 182
2,O=[N+]([O-])c1cccc2c1OC(CO)C2 (stereo not drawn),63 to 65
3,NCC1Cc2cc(-c3ccc(F)cc3)cc(F)c2O1 (stereo not drawn),> 250
4,O=C(Nc1ccc(-n2nc(C(F)(F)F)cc2C(F)(F)F)cc1)C1=CCCCC1,146 to 148
5,O=C(Nc1ccc(F)c(NC(=S)Nc2cc(Cl)cc(Cl)c2)c1)c1ccc(F)c(F)c1,197
6,CCC(=O)N1C(=O)C2C=CC1C2 (stereo not drawn),54 to 56
7,CC(C)(C)C(=O)Nc1ccccc1C(c1ccc(O)cc1)c1ccc(O)cc1,259 to 262
8,CC1(C)COc2cc3c(cc21)C1(CO3)CN(Cc2ccccn2)c2ccccc21 (stereo not drawn),145 to 147
9,CN1CCC(=C2c3ccccc3Sc3ccc(SC(F)(F)F)cc32)CC1,104 to 106
10,Cc1c(-c2ccc(O)cc2)n(Cc2ccc(OCCN3CCCC(C)C3)cc2)c2ccc(O)cc12 (stereo not drawn),121 to 123
11,CN(C)c1cc(CC(C#N)=CNc2ccccc2)cc(N(C)C)c1Cl,168
12,Cc1cc(N2CNC(=O)C23CCN(CCCn2c(=O)[nH]c4ccccc42)CC3)ccc1Cl,209
13,Cc1c(-c2ccccc2)oc(=O)c(Sc2ccccc2)c1O,166 to 167
14,Cc1cc(C)cc(Sc2[nH]c(C)nc2CO)c1,199 to 201
15,CC(C)(C)c1cc(=S)cc(C(C)(C)C)o1,108
16,Nc1ncc(-c2cnc3ccc(-c4ccc(OCC5(N)COC5)cc4)nn23)cc1C(F)(F)F,198 to 200
17,CC1COc2c(ccc(F)c2F)N1 (stereo not drawn),51
18,C[C@H]1C[C@@](O)(c2cccc(S(=O)(=O)c3ccc4c(c3)CCC(=O)N4)c2)CCO1,178 to 180
19,O=CNc1ccc(Br)c(Cl)c1,110 to 113
20,Cc1cccc(COc2cccc(OCc3ccc4cc(F)ccc4n3)c2)c1C(=O)O,153 to 154
21,CCOc1cnccc1C#N,56 to 57
22,CCN1C(=O)CCCc2cc(Nc3ncc(Cl)c(Nc4cc(Cl)ccc4OC)n3)c(OC)cc21,194 to 196
23,c1cc(CN2CCCCC2)cc(OCCCCCNc2nc3ccccc3s2)c1,140 to 145

row,SMILES,melting point [°C]
1,CCCCCCC(C)(C)c1cc(O)c(C2=C(CO)CCC(C)C2)c(O)c1 (stereo not drawn),155 to 156
2,CCOc1ccc(C2=NN(C(=O)c3cccnc3)CC2)cc1,124 to 125
3,O=C(O)c1ccc(OCC2CC(=O)N(c3ccc(OC4CCCCC4O)cc3)C2)cc1 (stereo not drawn),203 to 208
4,CN(CCCN1c2ccccc2CCc2ccccc21)c1ncccc1C(=O)O,133 to 135
5,C=CCc1cc2c(c(CC=C)c1O)CCC(=O)N2CCO,106 to 108
6,CN1Cc2c(C=O)ncn2-c2cccc(Cl)c2C1=O,204 to 205
7,CCOCc1nc2c(N)nc3cc(OCCc4c[nH]c5ccccc45)ccc3c2n1CC(C)(C)O,220 to 222
8,O=S(=O)(c1cccc(C(F)(F)F)c1)c1cc(Br)nc(N2CCNCC2)c1,160 to 162
9,CC(C)CC(O)(Cn1cncn1)c1ccccc1 (stereo not drawn),94 to 95
10,CCc1cc(=O)c2c([nH]1)CCCN2,206 to 209
11,CCN1C(=O)C(C)(C)C(=O)N(C)c2cc(CN(CCn3cc(C)c4sccc4c3=O)Cc3cnccc3C)ccc21,174 to 175
12,COc1cccc2c1nc(C)n2C,122 to 124
13,CCCCN(CC)c1nc(C)nc2c1NC(=S)CN2c1ccc(C(C)C)cc1Br,148 to 149
14,N=C(N)Nc1c(Cl)cccc1Cl,213
15,CSc1ccc(N=Cc2ccc(F)cc2)cc1,157 to 158
16,CCOC(=O)c1cc(-c2nnnn2C)c(-c2ccc(F)cc2)s1,132 to 133
17,CC(C)Cn1c(SCc2ccccn2)nc2ccccc2c1=O,91.7 to 93.2
18,Brc1ccc(-c2coc(-c3ccccn3)n2)cn1,85
19,CC(C)OCC1(C(F)(F)F)c2cc(C#N)ccc2Nc2ncc(C#N)cc21 (stereo not drawn),226 to 227
20,CC(C)(C)c1ccc(-c2nn(-c3ccc(F)cc3F)c3c2C2CCC3C2)cc1 (stereo not drawn),130 to 132
21,O=S(Cc1cccc(C(F)(F)F)c1)c1nc2cnccc2[nH]1 (stereo not drawn),194 to 197

# The remaining lines, values ahead:
row,melting point [°C],SMILES
1,78 to 81,NC(=O)c1cc(OCCCCNCc2ccccc2)ccc1O
2,111 to 112,"COC(=O)C1CC(=O)C(CC(=O)O)C1C[N+](=O)[O-] (single isomer, unassigned; (-))"
3,> 350,CS(=O)c1ccc2[nH]c3cc(C(=O)Nc4nnn[nH]4)nn3c(=O)c2c1 (stereo not drawn)
4,138 to 139,CC(C)(C)OC(=O)N1CCC[C@H]1CNc1ccc2ncc(I)n2n1
5,114 to 115,COC(=O)C(Cc1ccc(OCCc2nc(-c3ccccc3)oc2C)cc1)C(=O)N(C)C (stereo not drawn)
6,201 to 203,NNC(=O)c1ccc(OCc2cccc(Br)c2)cc1O
7,109,COc1ccc(Cl)cc1C(=O)NCc1ccc(-c2ccc(OC(C)(C)CO)cc2)cc1
8,252 to 254,"CCOC(=O)c1cn2c3c(c(Cl)c(F)cc3c1=O)C(=O)CC2C (single isomer, unassigned; (-))"
9,94 to 95,O=C(O)CCCCCCCSc1ccc(O)cc1
10,89 to 91,Cc1c(Cl)c(Oc2ccc(C(F)(F)F)cc2[N+](=O)[O-])nn1C(=O)NC(C)C
11,53 to 55,COC(=O)c1cc(Cl)c(C)c(Br)c1
12,97 to 98,CC(=O)C1(C)CCc2c(C)c(O)c(C)c(C)c2O1 (stereo not drawn)
13,105 to 107,CCOC(=O)c1ccc(C)c(NC(=O)C2=C(C)OCCS2)c1
14,139 to 140,COC(=O)c1cc(SCc2ccccc2)c(Cc2ccccc2)c(S(N)(=O)=O)c1
15,146,CCOC(=O)C(C)c1ccc2nc(N)sc2c1 (stereo not drawn)
16,129 to 132,COC(=O)OCC(CO)CCn1cnc2cnc(N)nc21 (stereo not drawn)
17,73 to 75,CCCCCCCCCCCCCCCCCC(=O)OC(CO)CO
18,165,COc1ccc2c(c1)c(SC)c(C(=O)O)n2C

row,melting point [°C],SMILES
1,65 to 67,COCC1=C(c2ccccc2)C(=O)N(C(C)(C)C(=O)OC(C)(C)C)CO1
2,199 to 200,CC(NC(CCc1ccccc1)C(=O)O)C(=O)OC(Cc1ccccc1)C(=O)O (stereo not drawn)
3,55 to 65,COC(=O)C(NC(=O)C1CCCS1)C(C)C (stereo not drawn)
4,56 to 58,CCCCCCCCCCCCCCOc1ccc(C(=O)OC)cc1
5,88 to 89.5,COC(=O)/C=C/C=C(\c1ccccc1)c1ccc(OC)cc1
6,73 to 74,COCN1C(C)=C(C(=O)OCOC(=O)C(C)(C)C)C(c2cccc([N+](=O)[O-])c2)C(C(=O)OCOC(=O)C(C)(C)C)=C1C
7,85 to 86,CCc1nc(C(=O)c2ccc(Cl)cc2Cl)c(C=O)n1C(CC)CC
8,76.1 to 79.9,CC(C(=O)NCCCCn1cnc2c(N)nc3ccccc3c21)c1ccc(-c2ccccc2)c(F)c1 (stereo not drawn)
9,65 to 67,CCSC(C)(C)C(=O)CC(=O)Nc1cc(NC(=O)C(CC)Oc2ccc(C(C)(C)CC)cc2C(C)(C)CC)ccc1OC (stereo not drawn)
10,184 to 185,CCOC(=O)c1ccc(C(=O)Nc2ccc3c(c2)CCCC(=O)N3C)cc1
11,126 to 128,CCOC(=O)/C=C\C(=O)Oc1cccc(-c2cn3c(n2)sc2ccccc23)c1
12,37 to 39,CCOC(=O)c1c(C(F)F)nn(C)c1Cl
13,212 to 213,NC(=NC(=O)Cn1c(Cl)ccc1Cl)NC(=O)c1ccccc1
14,127 to 128,COC(=O)[C@H](CO)NC(=O)[C@H](CS)NC(C)=O
15,230 to 232,COc1cc(Nc2c(C#N)cnc3cc(C#CCCO)c(OC)cc23)c(Cl)cc1Cl
16,200 to 202,CCNc1cc(O)c(C(=O)c2ccccc2C(=O)O)cc1C
17,176 to 178,CC(C)CN1C(=O)COc2cc(F)c(N)cc21
18,172 to 173,CC(C)C1NC(=O)CN1C(=O)C(Cl)Cl (stereo not drawn)
